# Experimental data taken from paper doi:10.1101/757047v1 (biorxiv, 2019).
# Legend:
# GAK [1] = molecular target: T1, GAK (Homo sapiens, UniProt O14976); assay: biochemical
# T1 sequence (O14976 12-347 limits assumed): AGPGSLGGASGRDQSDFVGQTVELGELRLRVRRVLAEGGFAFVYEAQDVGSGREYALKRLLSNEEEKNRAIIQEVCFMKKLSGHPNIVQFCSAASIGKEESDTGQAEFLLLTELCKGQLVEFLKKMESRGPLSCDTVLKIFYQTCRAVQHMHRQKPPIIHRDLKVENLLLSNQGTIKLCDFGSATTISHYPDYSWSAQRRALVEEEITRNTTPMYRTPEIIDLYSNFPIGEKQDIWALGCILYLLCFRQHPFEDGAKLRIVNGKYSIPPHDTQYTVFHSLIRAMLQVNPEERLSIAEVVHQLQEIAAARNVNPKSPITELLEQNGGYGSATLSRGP
# SLK [2] = molecular target: T2, SLK (Homo sapiens, UniProt Q9H2G2); assay: biochemical
# T2 sequence (Q9H2G2 34-292): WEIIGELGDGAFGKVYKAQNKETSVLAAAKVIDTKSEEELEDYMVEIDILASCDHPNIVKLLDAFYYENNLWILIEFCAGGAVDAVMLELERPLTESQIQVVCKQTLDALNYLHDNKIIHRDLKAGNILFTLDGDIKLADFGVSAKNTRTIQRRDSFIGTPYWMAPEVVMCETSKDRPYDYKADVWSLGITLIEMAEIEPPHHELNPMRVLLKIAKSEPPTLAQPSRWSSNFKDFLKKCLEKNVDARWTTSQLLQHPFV
# STK10 [3] = molecular target: T3, STK10 (Homo sapiens, UniProt O94804); assay: biochemical
# T3 sequence (O94804 36-294 limits assumed): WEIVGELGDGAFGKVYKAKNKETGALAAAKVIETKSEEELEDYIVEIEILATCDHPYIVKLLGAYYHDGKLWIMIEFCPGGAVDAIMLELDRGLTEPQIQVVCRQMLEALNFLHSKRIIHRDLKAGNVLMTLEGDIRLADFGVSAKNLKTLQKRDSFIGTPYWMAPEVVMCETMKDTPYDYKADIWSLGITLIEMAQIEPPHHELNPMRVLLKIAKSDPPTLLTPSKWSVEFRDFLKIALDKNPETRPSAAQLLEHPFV
# [4] = molecular target: T4, full length GAK protein N-terminally fused with NanoLuc luciferase (Homo sapiens, UniProt O14976); assay: cell-based; design: species or system HEK293T
# T4 sequence (O14976 2-1311): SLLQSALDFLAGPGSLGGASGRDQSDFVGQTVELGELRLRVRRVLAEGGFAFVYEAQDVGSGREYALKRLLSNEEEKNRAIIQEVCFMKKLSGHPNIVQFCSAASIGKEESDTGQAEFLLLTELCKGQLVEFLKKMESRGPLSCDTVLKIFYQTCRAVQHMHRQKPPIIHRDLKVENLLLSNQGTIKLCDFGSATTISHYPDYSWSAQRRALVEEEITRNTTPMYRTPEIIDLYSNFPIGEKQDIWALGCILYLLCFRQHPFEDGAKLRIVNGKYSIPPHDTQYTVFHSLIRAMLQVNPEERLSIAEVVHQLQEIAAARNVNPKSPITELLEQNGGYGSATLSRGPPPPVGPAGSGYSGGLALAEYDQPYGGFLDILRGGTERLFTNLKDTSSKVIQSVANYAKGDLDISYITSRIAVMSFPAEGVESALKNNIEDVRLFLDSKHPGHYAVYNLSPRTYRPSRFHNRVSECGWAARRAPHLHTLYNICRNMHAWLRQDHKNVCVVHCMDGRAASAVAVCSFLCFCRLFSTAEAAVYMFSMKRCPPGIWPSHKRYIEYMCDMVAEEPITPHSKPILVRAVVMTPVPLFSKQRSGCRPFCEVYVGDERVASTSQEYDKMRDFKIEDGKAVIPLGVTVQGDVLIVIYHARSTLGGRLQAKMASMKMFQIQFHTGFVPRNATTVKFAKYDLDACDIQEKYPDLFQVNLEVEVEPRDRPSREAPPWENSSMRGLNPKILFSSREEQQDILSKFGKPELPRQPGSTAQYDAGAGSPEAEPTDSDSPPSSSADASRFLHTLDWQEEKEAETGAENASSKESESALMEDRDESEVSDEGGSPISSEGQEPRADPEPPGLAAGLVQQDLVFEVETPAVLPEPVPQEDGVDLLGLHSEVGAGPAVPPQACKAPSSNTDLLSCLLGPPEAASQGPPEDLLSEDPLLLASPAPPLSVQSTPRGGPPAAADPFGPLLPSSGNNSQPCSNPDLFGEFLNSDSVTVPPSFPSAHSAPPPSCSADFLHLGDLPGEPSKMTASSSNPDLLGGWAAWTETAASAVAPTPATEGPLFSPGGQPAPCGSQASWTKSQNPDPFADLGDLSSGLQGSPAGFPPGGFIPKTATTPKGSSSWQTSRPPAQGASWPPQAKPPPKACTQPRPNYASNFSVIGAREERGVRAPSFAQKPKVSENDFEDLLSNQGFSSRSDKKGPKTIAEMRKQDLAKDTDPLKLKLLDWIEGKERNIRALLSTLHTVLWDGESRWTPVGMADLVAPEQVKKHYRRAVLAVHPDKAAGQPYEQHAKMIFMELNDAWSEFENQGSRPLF
# GAK [5] = molecular target: T1, GAK; assay: biochemical; remark: listed apart in the source
# SLK [6] = molecular target: T2, SLK; assay: biochemical; remark: listed apart in the source
# STK10 [7] = molecular target: T3, STK10; assay: biochemical; remark: listed apart in the source
# [8] = molecular target: T4, full length GAK protein N-terminally fused with NanoLuc luciferase; assay: cell-based; design: species or system HEK293T; remark: listed apart in the source
# SLK [9] = molecular target: T2, SLK; assay: TR-FRET binding displacement assay
# STK10 [10] = molecular target: T3, STK10; assay: TR-FRET binding displacement assay
# GAK [11] = molecular target: T1, GAK; assay: TR-FRET binding displacement assay
# [12] = molecular target: T4, full length GAK protein N-terminally fused with NanoLuc luciferase; assay: nanoBRET cellular target engagement; assay type: cell-based
# [13] = ATP site tracer displacement, 16-point dose response
SMILES,Ki (GAK [1]),Ki (SLK [2]),Ki (STK10 [3]),IC50 [4],Ki (GAK [5]),Ki (SLK [6]),Ki (STK10 [7]),IC50 [8],other results
"C#Cc1cccc(Nc2ncnc3ccc(I)cc23)c1F [compound 96, 96]",0.29 µM,18 µM,6.7 µM,> 5 µM,,,,,
"C#Cc1cccc(Nc2ncnc3cc(OC)c(OC)cc23)c1F [compound 100, 100]",,0.67 µM,0.25 µM,0.4 µM,,,,,
"C#Cc1cccc(Nc2ncnc3cc(I)ccc23)c1 [compound 65, 65]",,,,,0.02 µM,0.18 µM,0.15 µM,> 5 µM,
"C#Cc1cc(Nc2ncnc3cc(I)ccc23)ccc1Cl [compound 94, 94]",0.092 µM,0.93 µM,0.24 µM,> 5 µM,,,,,
"C#Cc1cccc(Nc2ncnc3cc(OC)ccc23)c1 [compound 72, 72]",,,,,0.0088 µM,0.67 µM,0.46 µM,1.2 µM,
"C#Cc1cccc(Nc2ncnc3ccc(F)cc23)c1 [compound 56, 56]",,,,,0.07 µM,8.5 µM,5.5 µM,2 µM,
"C#Cc1cccc(Nc2ncnc3ccc(C)cc23)c1 [compound 55, 55]",,,,,0.043 µM,4.3 µM,2.6 µM,3.6 µM,
"C#Cc1cccc(Nc2ncnc3cc4c(cc23)OCO4)c1 [compound 73, 73]",,,,,0.019 µM,2.7 µM,1.5 µM,1.7 µM,
"C#Cc1cccc(Nc2ncnc3ccc(Br)cc23)c1 [compound 59, 59]",,,,,0.028 µM,3.4 µM,2.5 µM,> 5 µM,
"C#Cc1cccc(Nc2ncnc3ccc(C(F)(F)F)cc23)c1 [compound 61, 61]",,,,,0.15 µM,3.2 µM,3.4 µM,> 5 µM,
"C#Cc1cccc(Nc2ncnc3ccc(I)cc23)c1 [compound 60, 60]",,,,,0.044 µM,4.3 µM,3.7 µM,> 5 µM,
"C#Cc1cccc(Nc2ncnc3ccc(C#N)cc23)c1 [compound 68, 68]",,,,,0.17 µM,7.9 µM,4.7 µM,> 5 µM,
"C#Cc1cc(Nc2ncnc3cc(C#N)ccc23)ccc1Cl [compound 90, 90]",0.32 µM,6.3 µM,1.6 µM,> 5 µM,,,,,
"C#Cc1ccc(F)c(Nc2ncnc3cc(I)ccc23)c1 [compound 91, 91]",0.11 µM,0.39 µM,0.25 µM,> 5 µM,,,,,
"C#Cc1cccc(Nc2ncnc3cc(F)c(F)cc23)c1 [compound 57, 57]",,,,,0.085 µM,3.8 µM,2.9 µM,> 5 µM,
"C#Cc1cccc(Nc2ncnc3cc(C(F)(F)F)ccc23)c1 [compound 66, 66]",,,,,0.088 µM,1.2 µM,1 µM,> 5 µM,
"C#Cc1cc(Nc2ncnc3cc(C#N)ccc23)ccc1F [compound 89, 89]",0.55 µM,0.69 µM,0.87 µM,> 5 µM,,,,,

SMILES,Ki (GAK [1]),Ki (SLK [2]),Ki (STK10 [3]),IC50 [4],Ki (GAK [5]),Ki (SLK [6]),Ki (STK10 [7]),IC50 [8],other results
"C#Cc1cccc(Nc2ncnc3ccccc23)c1 [compound 54, 54]",,,,,0.17 µM,23 µM,10 µM,4.5 µM,
"C#Cc1ccc(F)c(Nc2ncnc3ccc(I)cc23)c1 [compound 95, 95]",0.19 µM,4.5 µM,4.9 µM,> 5 µM,,,,,
"C#Cc1cccc(Nc2ncnc3ccc(OC)cc23)c1 [compound 70, 70]",,,,,0.024 µM,2.8 µM,2.2 µM,2.9 µM,
"C#Cc1ccc(F)c(Nc2ncnc3cc(C#N)ccc23)c1 [compound 87, 4-((5-ethynyl-2-fluorophenyl)amino)quinazoline-7-carbonitrile]",,,,> 5 µM,,,,,Ki (SLK [9]): 0.56 µM; Ki (STK10 [10]): 0.67 µM; Ki (GAK [11]): 1.2 µM
"C#Cc1cccc(Nc2ncnc3ccc(Cl)cc23)c1 [compound 58, 58]",,,,,0.03 µM,3.9 µM,2.8 µM,> 5 µM,
"C#Cc1cc(Nc2ncnc3cc(OC)c(OC)cc23)ccc1F [compound 101, 101]",0.0024 µM,0.072 µM,0.047 µM,0.14 µM,,,,,
"C#Cc1cccc(Nc2ncnc3cc(C#N)ccc23)c1F [compound 88, 88]",0.33 µM,1.1 µM,0.5 µM,> 5 µM,,,,,
"C#Cc1cc(Nc2ncnc3ccc(I)cc23)ccc1Cl [compound 98, 98]",0.14 µM,7.1 µM,1 µM,> 5 µM,,,,,
"C#Cc1cc(Nc2ncnc3cc(I)ccc23)ccc1F [compound 93, 93]",,0.11 µM,0.11 µM,> 5 µM,,,,,
"C#Cc1cc(Nc2ncnc3ccc(I)cc23)ccc1F [compound 97, 97]",0.068 µM,1.6 µM,0.87 µM,> 5 µM,,,,,
"C#Cc1cccc(Nc2ncnc3cc(Br)ccc23)c1 [compound 64, 64]",,,,,0.031 µM,0.26 µM,0.29 µM,> 5 µM,
"C#Cc1cccc(Nc2ncnc3cc(F)ccc23)c1 [compound 62, 62]",,,,,0.022 µM,1.2 µM,1.2 µM,4.1 µM,
"C#Cc1ccc(F)c(Nc2ncnc3cc(OC)c(OC)cc23)c1 [compound 99, 99]",0.0058 µM,0.28 µM,0.22 µM,0.39 µM,,,,,
"C#Cc1cc(Nc2ncnc3cc(OC)c(OC)cc23)ccc1Cl [compound 102, 102]",0.0034 µM,0.33 µM,0.075 µM,0.39 µM,,,,,
"COc1ccc2c(Nc3cc(OC)c(OC)c(OC)c3)ccnc2c1 [compound 22, 22]",,,,,,,,,"IC50 ([12]; HEK293T cells, tracer displacement, n=[…] mean): 0.44 µM; Ki (SLK [9]): 13 µM; Ki (STK10 [10]): 1.3 µM; Ki (GAK [11]; [13]): 0.0026 µM"
"C#Cc1cccc(Nc2ncnc3cc(I)ccc23)c1F [compound 92, 92]",0.093 µM,0.86 µM,0.27 µM,> 5 µM,,,,,
"COc1cc(Nc2ccnc3cc(C#N)ccc23)cc(OC)c1OC [compound 21, 21]",,,,,,,,,IC50 [12]: 0.35 µM; Ki (SLK [9]): 1.1 µM; Ki (STK10 [10]): 0.13 µM; Ki (GAK [11]; [13]): 0.0027 µM
